Laboratory results from PMC8657793, “Synthesis, In Vitro and In Silico Anticancer Activity of New 4-Methylbenzamide Derivatives Containing 2,6-Substituted Purines as Potential Protein Kinases Inhibitors” (International Journal of Molecular Sciences, 2021).

System: OKP-GS cells
Test: Annexin-V/propidium iodide apoptosis assay by flow cytometry
Assay type: cell-based, human
Conditions: for Living cells: Figure 3; for Level of apoptosis compared with sorafnib / Number of necrotic cells: 72 h; for Number of necrotic cells: 5, 10 and 20 μM
Description: Apoptosis is a versatile and extremely effective pathway for cell death. This phenomenon can be caused by internal signals, such as genotoxic stress, or external signals, such as the binding of ligands to death receptors on the cell surface. The induction of apoptosis was studied by measuring the translocation of phosphatidylserine from the cytoplasmic to the extracellular side of the plasma membrane. OKP-GS cells were treated with compound 7 or 10 at 5, 10 and 20 μM for 72 h, after which annexin-V/propidium iodide (PI) binding was measured by flow cytometry (Figure 2).
Tumor cells were plated on a 6-well plate at a density of 100.000 per well for OKP-GS. Test compounds 7 and 10 were added at concentrations of 5, 10, and 20 μM for 72 h. Then, the cells were washed from the culture medium by centrifugation at 1000 rpm for 5 min, washed again with phosphate buffer, then the Annexin V-FITC and PI dyes from the Annexin 5A-FITC Kit (Beckman Coulter, Brea, CA, USA) were added, according to the manufacturer’s instructions. Colored suspensions were incubated for 15 min in the dark on ice and measured on a Cytomics FC500 Beckman Coulter flow cytometer (channels FL1 for Annexin V-FITC and FL4 for PI). Data were analyzed with Kaluza 2.0 Software (Beckman Coulter, Brea, CA, USA).

Structure (SMILES): Cc1cn(-c2cc(NC(=O)c3ccc(Cn4cnc5c(Cl)nc(Cl)nc54)cc3)cc(C(F)(F)F)c2)cn1 [Compound 10, 4-((2,6-Dichloro-9H-purin-9-yl)methyl)-N-(3-(4-methyl-1H-imidazol-1-yl)-5-(trifluoromethyl)-phenyl)benzamide]
- Living cells (5 μM): 70,22
- Living cells (10 μM): 44,89
- Level of apoptosis compared with sorafnib (20 μM): more than two-fold higher level of apoptosis
- Living cells (20 μM): 21,99
- Number of necrotic cells: ≤ 7.3%

Structure (SMILES): O=C(Nc1cccc(C(F)(F)F)c1)c1ccc(Cn2cnc3c(Cl)nc(Cl)nc32)cc1 [Compound 7, 4-((2,6-Dichloro-9H-purin-9-yl)methyl)-N-(3-(trifluoromethyl)phenyl)benzamide]
- Living cells (5 μM): 83,07
- Living cells (10 μM): 56,68
- Level of apoptosis compared with sorafnib (20 μM): more than two-fold higher level of apoptosis
- Living cells (20 μM): 23,92
- Number of necrotic cells: ≤ 7.3%
